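The compound was tested at five concentrations on cells cultured in 96-well plates, with a 48-hour exposure period. GI50: concentration for 50% inhibition of growth. TGI: concentration producing complete growth inhibition.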
Assays:
Experiment in all cases: inhibition of tumour cell growth, NCI panel, 48 h; in the data active = GI50 below about 0.43 µM; inactive = the rest
[1] = system: 786-0 renal
[2] = system: A498 renal
[3] = system: A549 NSCLC
[4] = system: ACHN renal
[5] = system: BT-549 breast
[6] = system: CAKI-1 renal
[7] = system: CCRF-CEM leukemia
[8] = system: COLO 205 colon
[9] = system: DU-145 prostate
[10] = system: EKVX NSCLC
[11] = system: HCC-2998 colon
[12] = system: HCT-116 colon
[13] = system: HCT-15 colon
[14] = system: HL-60(TB) leukemia
[15] = system: HOP-62 NSCLC
[16] = system: HOP-92 NSCLC
[17] = system: HS 578T breast
[18] = system: HT29 colon
[19] = system: IGROV1 ovarian
[20] = system: K-562 leukemia
[21] = system: KM12 colon
[22] = system: LOX IMVI melanoma
[23] = system: M14 melanoma
[24] = system: MALME-3M melanoma
[25] = system: MCF7 breast
[26] = system: MDA-MB-231 breast
[27] = system: MDA-MB-435
[28] = system: MOLT-4 leukemia
[29] = system: NCI-H226 lung
[30] = system: NCI-H23 lung
[31] = system: NCI-H460 lung
[32] = system: NCI-H522 lung
[33] = system: NCI/ADR-RES ovarian
[34] = system: OVCAR-3 ovarian
[35] = system: OVCAR-4 ovarian
[36] = system: OVCAR-5 ovarian
[37] = system: OVCAR-8 ovarian
[38] = system: PC-3 prostate
[39] = system: RPMI-8226 leukemia
[40] = system: RXF 393 renal
[41] = system: SF-268 CNS
[42] = system: SF-295 CNS
[43] = system: SF-539 CNS
[44] = system: SK-MEL-2 melanoma
[45] = system: SK-MEL-28 melanoma
[46] = system: SK-MEL-5 melanoma
[47] = system: SN12C renal
[48] = system: SNB-19 CNS
[49] = system: SNB-75 CNS
[50] = system: SR leukemia
[51] = system: SW-620 colon
[52] = system: T-47D breast
[53] = system: TK-10 renal
[54] = system: U251 CNS
[55] = system: UACC-257 melanoma
[56] = system: UACC-62 melanoma
[57] = system: UO-31 renal

COc1ccc2c(c1)C(=O)c1c-2c(Nc2ccc(C(C)=O)cc2)nc2ccccc12
44.5 µM: TGI [43]
29.5 µM: TGI [26]
19.2 µM: TGI [12]
40.6 µM: TGI [54]
99.2 µM: TGI [30]
> 100 µM: TGI [2] | TGI [3] | TGI [4] | TGI [6] | TGI [7] | TGI [8] | TGI [9] | TGI [10] | TGI [11] | TGI [13] | TGI [14] | TGI [17] | TGI [18] | TGI [20] | TGI [21] | TGI [22] | TGI [23] | TGI [24] | TGI [25] | TGI [27] | TGI [28] | TGI [29] | TGI [31] | TGI [32] | TGI [33] | TGI [34] | TGI [35] | TGI [36] | TGI [38] | TGI [39] | TGI [41] | TGI [42] | TGI [44] | TGI [45] | TGI [46] | TGI [47] | TGI [49] | TGI [50] | TGI [51] | TGI [52] | TGI [53] | TGI [55] | TGI [56] | TGI [57]
9.2 µM: TGI [40]
37.3 µM: TGI [48]
78.3 µM: TGI [5]
32.2 µM: TGI [1]
92.8 µM: TGI [19]
73.7 µM: TGI [16]
16.2 µM: TGI [15]
inactive: GI50 [1] 12.3 µM | GI50 [2] 35.2 µM | GI50 [3] 37.2 µM | GI50 [4] 53.5 µM | GI50 [5] 17.7 µM | GI50 [6] > 100 µM | GI50 [7] > 100 µM | GI50 [8] > 100 µM | GI50 [9] 29 µM | GI50 [10] 25.2 µM | GI50 [11] 97.1 µM | GI50 [12] 4.17 µM | GI50 [13] > 100 µM | GI50 [14] > 100 µM | GI50 [15] 3.96 µM | GI50 [16] 24 µM | GI50 [17] 8.39 µM | GI50 [18] 43.7 µM | GI50 [19] 22.9 µM | GI50 [20] > 100 µM | GI50 [21] > 100 µM | GI50 [22] 54.7 µM | GI50 [23] 64.6 µM | GI50 [24] 49.6 µM | GI50 [25] 64.7 µM | GI50 [26] 11.4 µM | GI50 [27] > 100 µM | GI50 [28] > 100 µM | GI50 [29] 38.3 µM | GI50 [30] 18 µM | GI50 [31] 85.1 µM | GI50 [32] 30.3 µM | GI50 [33] 41.7 µM | GI50 [34] > 100 µM | GI50 [35] 58.3 µM | GI50 [36] 29.6 µM | GI50 [37] 18 µM | GI50 [38] 34.3 µM | GI50 [39] 89.5 µM | GI50 [40] 2.54 µM | GI50 [41] 58.7 µM | GI50 [42] 33.8 µM | GI50 [43] 15.5 µM | GI50 [44] 97.7 µM | GI50 [45] 52.2 µM | GI50 [46] 48.3 µM | GI50 [47] 33.4 µM | GI50 [48] 14.5 µM | GI50 [49] 26.1 µM | GI50 [50] 55.7 µM | GI50 [51] > 100 µM | GI50 [52] 77.2 µM | GI50 [53] 40.1 µM | GI50 [54] 13.5 µM | GI50 [55] 91.1 µM | GI50 [56] 21.9 µM | GI50 [57] > 100 µM
64.9 µM: TGI [37]

Reference: PubChem BioAssay (NCI)
